Assay results reported in patent US20240408057A1, “Composition for preventing or treating cachexia and muscle loss” (METAFINES.CO.LTD., priority 2023, published 2024).

Columns and labels:
Format in all cases: cell-based, mouse
C2C12 myotube cells [1] = test: Myotube diameter of C2C12 myotubes treated with inducers (no CCM); conditions: 72 hours
Protocol: (§1) A C2C12 cell line was dispensed into a 6-well plate at 4.0×10^5 cells/well, and then cultured in DMEM medium containing 10% fetal bovine serum (FBS) under 37° C. and 5% CO2 conditions for one day. When the cell density reached about 80%, the medium was replaced with a differentiation medium and the cells were cultured for additional 3 days to set up a normal control group, and simultaneously a test group was set up by treatment with WY-14643, which is a PDK-4 activator, at a concentration of 50 μM. […] Scale bars inserted in FIGS. 13A and 13B represent a horizontal length of 50 μm. Referring to FIG. 13, it was confirmed that the diameter of myotube cells decreased when treated with the PDK-4 activator (i.e., WY-14643), thereby inducing the cells to a state similar to that of cancer cachexia.
(§2) A C2C12 cell line was dispensed into a 6-well plate at 4.0×10^5 cells/well, and then cultured in DMEM medium containing 10% fetal bovine serum (FBS) under 37° C. and 5% CO2 conditions for one day. […]
A C2C12 cell line was dispensed into a 6-well plate at 4.0×10^5 cells/well, and then cultured in DMEM medium containing 10% fetal bovine serum (FBS) under 37° C. and 5% CO2 conditions for one day. […] The myotube diameter was measured using Image J to confirm the changes in diameter of myotube cells, and the results are shown in FIG. 37B.

PDK-4 [2] = test: PDK-4 expression (Western blot) in C2C12 myotubes treated with inducers (no CCM); conditions: 50 μM, 72 hours, vs UCM
Protocol: as §1
Subsequently, the expression of PDK-4, MuRF1, Atrogin1, MyHC, and Myogenin in the normal control group (UCM) and the activator-treated group (WY-14643) were analyzed by Western blot, and the results are shown in FIGS. 14A and 14B.
as §2, with “day. When the cell density reached about 80%, the medium was replaced with a differentiation medium and the cells were cultured for additional 3 days.” for “day.”

MuRF1 [3] = test: MuRF1 expression (Western blot) in C2C12 myotubes treated with inducers (no CCM); conditions: 50 μM, 72 hours, vs UCM
Protocol: as §1
(§3) Subsequently, the expression of PDK-4, MuRF1, Atrogin1, MyHC, and Myogenin in the normal control group (UCM) and the activator-treated group (WY-14643) were analyzed by Western blot, and the results are shown in FIGS. 14A and 14B. […]
(§4) Subsequently, the expression of Calpain 3, MuRF1, Atrogin1, MyHC, and Myogenin in the normal control group (UCM), vehicle control group (scrambled siRNA), and Calpain 3 siRNA treated group was analyzed by Western blot, and the results are shown in FIGS. 16A and 16B. […]

Atrogin1 [4] = test: Atrogin1 expression (Western blot) in C2C12 myotubes treated with inducers (no CCM); conditions: 50 μM, 72 hours, vs UCM
Protocol: as §1, §3, §4

MyHC [5] = test: MyHC expression (Western blot) in C2C12 myotubes treated with inducers (no CCM); conditions: 50 μM, 72 hours, vs UCM
Protocol: as §1, §3, §4

Myogenin [6] = test: Myogenin expression (Western blot) in C2C12 myotubes treated with inducers (no CCM); conditions: 50 μM, 72 hours, vs UCM
Protocol: as §1, §3, §4

PDK-4 [7] = test: PDK-4 expression (Western blot) in CCM-treated C2C12 myotubes; conditions: for expression of PDK-4: C2C12 myotubes + CCM, 72 hours, comparison experiment with components alone and in combination; for expression level of PDK-4: C2C12 myotubes, differentiation medium:CCM 1:1, 72 hours, three predetermined concentrations, vs CCM control
Protocol: (§5) C2C12 cell line was dispensed into a 6-well plate at 4.0×10^5 cells/well and cultured in DMEM medium containing 10% fetal bovine serum (FBS) under 37° C. and 5% CO2 conditions for one day. When the cell density reached about 80%, the medium was replaced with a differentiation medium and the cells were cultured for additional 3 days. […] After culturing for 72 hours, the cells were collected and analyzed for PDK-4, which is a target marker, by Western blot and the results are summarized in FIG. 6.
(§6) A C2C12 cell line was dispensed into a 6-well plate at 4.0×10^5 cells/well, and then cultured in DMEM medium containing 10% fetal bovine serum (FBS) under 37° C. and 5% CO2 conditions for one day. When the cell density reached about 80%, the medium was replaced with a differentiation medium and the cells were cultured for additional 3 days.
Subsequently, MuRF1, Atrogin1, MyHC, Myogenin (muscle markers) and Calpain 3, PDK-4, and GDF-15 (other target markers for muscle related disease) were analyzed using Western blot, and the relative expression levels for the markers are shown in FIGS. 26 and 28.

Calpain 3 = Calpain 3 expression (Western blot) in CCM-treated C2C12 myotubes
Protocol: as §5
The experiment was performed in the same manner as in Experimental Example 3-1, except that Calpain 3 was analyzed as a target marker for Western blot, and the results are summarized in FIG. 7.
as §6

GDF-15 = GDF-15 expression (Western blot) in CCM-treated C2C12 myotubes; conditions: for expression of GDF-15: C2C12 myotubes + CCM, 72 hours, comparison experiment with components alone and in combination; for expression level of GDF-15: C2C12 myotubes, differentiation medium:CCM 1:1, 72 hours, three predetermined concentrations, vs CCM control
Protocol: as §5
The analysis was performed in the same manner as in Experimental Example 4-1 except for analyzing GDF-15 as a target marker for a Western blot, and the results are summarized in FIGS. 8 and 9.
The analysis was performed in the same manner as in Experimental Example 3-1 except for analyzing PDK-4 as a target marker for Western blot, and the results are summarized in FIGS. 10 and 11.
as §6

MuRF1 [8] = test: MuRF1 expression (Western blot) in CCM-treated C2C12 myotubes; conditions: 72 hours, compared to other experimental groups (components alone and in combination)
Protocol: (§7) A C2C12 cell line was dispensed into a 6-well plate at 4.0×10^5 cells/well, and then cultured in DMEM medium containing 10% fetal bovine serum (FBS) under 37° C. and 5% CO2 conditions for one day. When the cell density reached about 80%, the medium was replaced with a differentiation medium and the cells were cultured for additional 3 days. After confirming completion of differentiation of the cells, the cells were treated with a mixture, in which the differentiation medium and cancer-cell conditioned medium (CCM) were mixed at a 1:1 ratio, to form a control group, and simultaneously, a test group was set up by treating with the calcium salts of Preparation Examples 1 to 3 according to three predetermined concentrations.
as §6

Atrogin1 [9] = test: Atrogin1 expression (Western blot) in CCM-treated C2C12 myotubes; conditions: 72 hours, compared to other experimental groups (components alone and in combination)
Protocol: as §7, §6

MyHC [10] = test: MyHC expression (Western blot) in CCM-treated C2C12 myotubes; conditions: 72 hours, compared to other experimental groups (components alone and in combination)
Protocol: as §7, §6

Myogenin [11] = test: Myogenin expression (Western blot) in CCM-treated C2C12 myotubes; conditions: 72 hours, compared to other experimental groups (components alone and in combination)
Protocol: as §7, §6

C2C12 myotube cells [12] = test: Myotube diameter (crystal violet, Image J) of CCM-treated C2C12 myotubes; conditions: C2C12 myotubes + CCM 1:1, 72 hours, predetermined concentration; compared to CCM
Protocol: A C2C12 cell line was dispensed into a 6-well plate at 4.0×10^5 cells/well, and then cultured in DMEM medium containing 10% fetal bovine serum (FBS) under 37° C. and 5% CO2 conditions for one day. When the cell density reached about 80%, the medium was replaced with a differentiation medium and the cells were cultured for additional 3 days. […] The myotube diameter was measured using Image J from the above image, and the change in myotube cell diameter is summarized in FIG. 17B. A C2C12 cell line was dispensed into a 6-well plate at 4.0×10^5 cells/well, and then cultured in DMEM medium containing 10% fetal bovine serum (FBS) under 37° C. and 5% CO2 conditions for one day. When the cell density reached about 80%, the medium was replaced with a differentiation medium and the cells were cultured for additional 3 days. […] The myotube diameter was measured using Image J from the above images, and the changes in myotube cell diameter are summarized in FIG. 24B.

[13] = C2C12 myotubes + CCM, 72 hours, compared to other experimental groups (components alone and in combination)
[14] = C2C12 myotubes, differentiation medium:CCM 1:1, 72 hours, three predetermined concentrations, vs CCM control

| Structure (SMILES) | expression of PDK-4 (PDK-4 [7]) | expression level of PDK-4 (PDK-4 [7]) | expression level of Calpain 3 (Calpain 3; [13]) | expression level of Calpain 3 (Calpain 3; [14]) | expression of GDF-15 (GDF-15) | expression level of GDF-15 (GDF-15) | expression of MuRF1 (MuRF1 [8]) | expression of Atrogin1 (Atrogin1 [9]) | expression of MyHC (MyHC [10]) | expression of Myogenin (Myogenin [11]) | diameter of myotube cells (C2C12 myotube cells [12]) | other results |
| --- | --- | --- | --- | --- | --- | --- | --- | --- | --- | --- | --- | --- |
| Cc1cccc(Nc2cc(Cl)nc(SCC(=O)O)n2)c1C [WY-14643] | – | – | – | – | – | – | – | – | – | – | – | diameter of myotube cells (C2C12 myotube cells [1]; 50 μM, vs normal control (UCM)): decreased; expression of PDK-4 (PDK-4 [2]): up-regulated; expression of MuRF1 (MuRF1 [3]): up-regulated; expression of Atrogin1 (Atrogin1 [4]): up-regulated; expression of MyHC (MyHC [5]): down-regulated; expression of Myogenin (Myogenin [6]): down-regulated |
| C[C@@H]1C[C@H]2[C@@H]3CCC4=CC(=O)C=C[C@]4(C)[C@@]3(F)[C@@H](O)C[C@]2(C)[C@@]1(O)C(=O)CO [dexamethasone] | – | – | – | – | – | – | – | – | – | – | – | treatment concentration from which the myotube diameter started to decrease (C2C12 myotube cells [1]): ≥ 1 µM |
| CC(C)CC(N)C(=O)[O-].O=C1OC(C(O)CO)C([O-])=C1O.[Ca+2] (centres unmarked) [Preparation Example 2, calcium salts of ascorbic acid and leucine] | inhibited | expression was inhibited | higher expression level | decrease in expression was inhibited | inhibited | expression was inhibited | excellent effect of inhibiting the increase of expression | excellent effect of inhibiting the increase of expression | excellent effect of inhibiting the decrease of expression | excellent effect of inhibiting the decrease of expression | – | – |
| O=C1O[C@H]([C@@H](O)CO)C(O)=C1O [ascorbic acid, reference compound] | – | – | – | – | – | – | – | – | – | – | increased | – |
| O=C(O)C(Cl)Cl [dichloroacetic acid, reference compound] | – | – | – | – | – | – | – | – | – | – | increased | – |
| CC(C)CC(N)C(=O)[O-].O=C([O-])C(Cl)Cl.[Ca+2] (centres unmarked) [Preparation Example 3, calcium salts of dichloroacetic acid and leucine] | inhibited | expression was inhibited | higher expression level | decrease in expression was inhibited | inhibited | expression was inhibited | excellent effect of inhibiting the increase of expression | excellent effect of inhibiting the increase of expression | excellent effect of inhibiting the decrease of expression | excellent effect of inhibiting the decrease of expression | – | – |
